Laboratory results taken from BindingDB's records for doi:10.1016/j.bmc.2008.05.048 (University of Canterbury, 2008).

Biological target: T1, Calpain-2 catalytic subunit (Ovis aries, UniProt A8IF71)
T1 sequence (A8IF71 whole entry): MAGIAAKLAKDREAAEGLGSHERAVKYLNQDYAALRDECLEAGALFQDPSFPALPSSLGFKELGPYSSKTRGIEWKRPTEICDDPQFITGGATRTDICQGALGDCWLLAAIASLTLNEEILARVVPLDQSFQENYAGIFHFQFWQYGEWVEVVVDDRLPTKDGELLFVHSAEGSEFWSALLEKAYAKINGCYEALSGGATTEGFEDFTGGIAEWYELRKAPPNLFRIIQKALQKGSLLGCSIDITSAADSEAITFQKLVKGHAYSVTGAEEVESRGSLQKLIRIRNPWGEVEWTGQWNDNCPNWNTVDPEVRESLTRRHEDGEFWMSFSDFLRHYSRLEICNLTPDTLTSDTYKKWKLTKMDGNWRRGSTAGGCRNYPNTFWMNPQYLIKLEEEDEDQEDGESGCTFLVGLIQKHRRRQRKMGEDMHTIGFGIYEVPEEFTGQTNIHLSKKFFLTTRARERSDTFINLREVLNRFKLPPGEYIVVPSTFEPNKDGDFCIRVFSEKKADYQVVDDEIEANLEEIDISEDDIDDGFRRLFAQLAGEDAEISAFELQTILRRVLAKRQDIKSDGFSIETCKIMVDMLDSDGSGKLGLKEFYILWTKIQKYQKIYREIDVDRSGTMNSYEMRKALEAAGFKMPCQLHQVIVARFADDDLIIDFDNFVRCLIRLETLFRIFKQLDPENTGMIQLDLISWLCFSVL
Assay: BODIPY Fluorescent Microplate Assay
Settings: pH 7.5; 25 °C
Protocol: Calpain inhibition assays were performed in 96-well black plates. The reaction was initiated by the addition of substrate solution. The progress of the reaction was followed for 10 min in a (BMG) Fluorostar with excitation at 485 nm and emission at 530 nm. The percentage inhibition was determined as […]. The reported IC50 values are the average of triplicate determinations.

SMILES | IC50
CC(C)C[C@@H](C=O)NC(=O)[C@@H](NC(=O)c1ccc(C=O)o1)C(C)C [(2S)-2-[(5-formylfuran-2-yl)formamido]-3-methyl-N-[(2S)-4-methyl-1-oxopentan-2-yl]butanamide] | 100 nM
CC(C)C[C@@H](C=O)NC(=O)[C@@H](NC(=O)c1cccs1)C(C)C [(2S)-3-methyl-N-[(2S)-4-methyl-1-oxopentan-2-yl]-2-(thiophen-2-ylformamido)butanamide] | 100 nM
CC(C)C[C@@H](C=O)NC(=O)[C@@H](NC(=O)c1cc(C=O)c[nH]1)C(C)C [(2S)-2-[(4-formyl-1H-pyrrol-2-yl)formamido]-3-methyl-N-[(2S)-4-methyl-1-oxopentan-2-yl]butanamide] | 100 nM
